{"source": "patent US8927530B2", "about": "“Therapeutic combination comprising a PLK1 inhibitor and an antineoplastic agent” (priority 2009, dated 2015)", "key": {"[1]": {"tested_on": "HT29 human colon cancer tumors", "assay": "In vivo activity of combination with bevacizumab, HT29 tumors implanted subcutaneously", "conditions": "for T-C: delay to reach 1 g tumor"}, "[2]": {"tested_on": "HT29 human colon cancer tumors", "conditions": "for T-C: delay to reach 1 g tumor", "description": "Balb, Nu/Nu male mice, from Harlan (Italy), were maintained, in agreement with the European Communities Council Directive no.\n(§1) Fragments of HT29 human colon cancer tumors were implanted subcutaneously. The treatment started when tumors were palpable. […] Tumor growth and body weight were measured every 3 days. Tumor growth was assessed by caliper. The two diameters were recorded and the tumor weight was calculated according to the following formula: length (mm)×width^2/2. […] This delay (T-C value) was defined as the difference of time (in days) required for the treatment group (T) and the control group (C) tumors to reach a predetermined size (1 g). Sinergy was identified when T-C of drug combination is >of addition of T-C value of single agents.\n(§2) Toxicity was evaluated on the basis of body weigh reduction."}, "[3]": {"tested_on": "HT29 human colon cancer tumors", "conditions": "for T-C: delay to reach 1 g tumor", "description": "as §1, with “Balb, Nu/Nu male mice, from Harlan (Italy), were maintained, in agreement with the European Communities Council Directive no. […] Fragments” for “Fragments”, “single agents, additivity is identified when T-C value of drug combination is equal to addition of T-C value of single” for “single”\nas §2", "remark": "listed apart in the source"}, "[4]": {"tested_on": "AML-PS acute myeloid leukaemia cells", "conditions": "for Median Survival Time: Control 34", "description": "SCID female mice, from Harlan (Italy), were maintained, in agreement with the European Communities Council Directive no. […] 5×10^6 in 0.2 ml AML-PS acute myeloid leukaemia cells were injected intravenously in mice.\nCytarabine was administered by intraperitoneal route at the dose of 75 mg/kg on days 2, 3, 4, 5, 6, 14, 15, 16, 17, 18, 26, 27, 28, 29, 30, 38, 39, 40, 41 42. […] Body weight was measured every 3 days. The effect of the antitumor treatment was evaluated determining the Median Survival Time of treated animals respect to control group."}, "[5]": {"conditions": "Compound of formula (I) 45 mg/kg oral, day 2, 3, 4, 6, 7, 8"}, "[6]": {"conditions": "male, Balb Nu/Nu, mouse, in vivo, po, 45 mg/kg"}}, "note": "Like-named read-outs stand apart in the source and are kept apart here."}
{"molecule": "bevacizumab [reference compound]", "values": [{"measurement": "Toxicity", "setting": "[1]; Bevacizumab 20 mg/kg, intravenous route (footnote), days 1, 5, 9, 13, body weight reduction", "result": "0/7"}, {"measurement": "T-C", "setting": "[1]; Bevacizumab 20 mg/kg, intravenous route (footnote), days 1, 5, 9, 13", "result": 4.7, "unit": "days"}]}
{"molecule": "CN1CCN(c2ccc(OC(F)(F)F)c(Nc3ncc4c(n3)-c3c(c(C(N)=O)nn3CCO)CC4)c2)CC1", "note": "[Compound of formula (I)]", "values": [{"measurement": "T-C", "setting": "[2]; [5]", "result": 10.3, "unit": "days"}, {"measurement": "Toxicity", "setting": "[2]; [6]", "result": "0/7"}, {"measurement": "T-C", "setting": "[1]; Compound of formula (I) 45 mg/kg oral, day 2, 3, 4, 6, 7, 8, 10, 11, 12", "result": 8.5, "unit": "days"}, {"measurement": "T-C", "setting": "[1]; Compound of formula (I) 60 mg/kg oral, day 2, 3, 4, 6, 7, 8, 10, 11, 12", "result": 16.8, "unit": "days"}, {"measurement": "Toxicity", "setting": "[1]; [6]", "result": "0/7"}, {"measurement": "Toxicity", "setting": "[1]; male, Balb Nu/Nu, mouse, in vivo, po, 60 mg/kg", "result": "0/7"}, {"measurement": "T-C", "setting": "[3]; [5]", "result": 10.3, "unit": "days"}, {"measurement": "Toxicity", "setting": "[3]; [6]", "result": "0/7"}, {"measurement": "Median Survival Time", "setting": "[4]; Compound of formula (I) 120 mg/kg oral, day 2, 3, 14, 15, 26, 27, 38, 39", "result": 49.5}, {"measurement": "Toxicity", "setting": "[4]; female, SCID, mouse, in vivo, po, 120 mg/kg", "result": "0/7"}]}
{"molecule": "O=c1[nH]cc(F)c(=O)[nH]1", "note": "[5FU, 5-fluorouracil, reference compound]", "values": [{"measurement": "T-C", "setting": "[3]; 5FU 50 mg/kg intravenous, days 1, 5, 9", "result": 11.4, "unit": "days"}]}
{"molecule": "Nc1ccn([C@@H]2O[C@H](CO)[C@@H](O)[C@@H]2O)c(=O)n1", "note": "[Cytarabine, cytarabine, reference compound]", "values": [{"measurement": "Median Survival Time", "setting": "[4]; cytarabine 75 mg/kg intraperitoneal, days 2-6, 14-18, 26-30, 38-42", "result": 66.5}]}
{"molecule": "CCc1c2c(nc3ccc(OC(=O)N4CCC(N5CCCCC5)CC4)cc13)-c1cc3c(c(=O)n1C2)COC(=O)[C@]3(O)CC", "note": "[CPT11, reference compound]", "values": [{"measurement": "T-C", "setting": "[2]; CPT11 45 mg/kg intravenous, days 1, 5, 9", "result": 12.3, "unit": "days"}]}
